Measured values as given in PubChem BioAssay AID1963831 (Molecular Pharmacology Branch, DTP, NCI, 2024).

System: 889142-216-R-J1-PDC complex spheroid viability
Test: Anticancer human tumor 889142-216-R-J1-PDC patient-derived bladder carcinoma cell line growth inhibition [POLQ]
Details: for IC50: curve of first compound; for viability, T/C: stronger effect = lower value
Method in brief: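 Complex spheroid viability model combining PDC tumour cells with endothelial (HUVEC) and MSC stromal cells. Novobiocin, ART-558 or RP6685 were tested singly and in combination with standard and investigational anticancer drugs. Each was titrated in half-log steps from near clinical Cmax, or from 10 microM where Cmax was unknown.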

[1] = second compound 0.0316 µM, first compound 0.0316 µM
[2] = second compound 0.0316 µM, first compound 0.1 µM
[3] = second compound 0.0316 µM, first compound 0.316 µM
[4] = second compound 0.0316 µM, first compound 1 µM
[5] = second compound 0.0316 µM, first compound 3.16 µM
[6] = second compound 0.0316 µM, first compound 10 µM
[7] = second compound 0.1 µM, first compound 0.0316 µM
[8] = second compound 0.1 µM, first compound 0.1 µM
[9] = second compound 0.1 µM, first compound 0.316 µM
[10] = second compound 0.1 µM, first compound 1 µM
[11] = second compound 0.1 µM, first compound 3.16 µM
[12] = second compound 0.1 µM, first compound 10 µM
[13] = second compound 0.316 µM, first compound 0.0316 µM
[14] = second compound 0.316 µM, first compound 0.1 µM
[15] = second compound 0.316 µM, first compound 0.316 µM
[16] = second compound 0.316 µM, first compound 1 µM
[17] = second compound 0.316 µM, first compound 3.16 µM
[18] = second compound 0.316 µM, first compound 10 µM
[19] = second compound 1 µM, first compound 0.0316 µM
[20] = second compound 1 µM, first compound 0.1 µM
[21] = second compound 1 µM, first compound 0.316 µM
[22] = second compound 1 µM, first compound 1 µM
[23] = second compound 1 µM, first compound 3.16 µM
[24] = second compound 1 µM, first compound 10 µM
[25] = second compound 3.16 µM, first compound 0.0316 µM
[26] = second compound 3.16 µM, first compound 0.1 µM
[27] = second compound 3.16 µM, first compound 0.316 µM
[28] = second compound 3.16 µM, first compound 1 µM
[29] = second compound 3.16 µM, first compound 3.16 µM
[30] = second compound 3.16 µM, first compound 10 µM
[31] = second compound 10 µM, first compound 0.0316 µM
[32] = second compound 10 µM, first compound 0.1 µM
[33] = second compound 10 µM, first compound 0.316 µM
[34] = second compound 10 µM, first compound 1 µM
[35] = second compound 10 µM, first compound 3.16 µM
[36] = second compound 10 µM, first compound 10 µM
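Note: spheroids exposed to compounds for seven days.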
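Throughout, for viability, T/C: 100% = DMSO vehicle control viability.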

SMILES: CC(=O)O[C@H]1C(=O)[C@@]2(C)[C@H]([C@H](OC(=O)c3ccccc3)[C@]3(O)C[C@H](OC(=O)[C@H](O)[C@@H](NC(=O)c4ccccc4)c4ccccc4)C(C)=C1C3(C)C)[C@]1(OC(C)=O)CO[C@@H]1C[C@@H]2O + Cc1cccc(N(C)C(=O)C2C(O)CCN2c2nc(C)cc(C(F)(F)F)c2C#N)c1
- IC50 (second compound 0.0316 µM): > 3000 nM
- IC50 (second compound 0.1 µM): 344 nM
- IC50 (second compound 0.316 µM): > 3000 nM
- IC50 (second compound 1 µM): > 3000 nM
- IC50 (second compound 3.16 µM): 9.5 nM
- IC50 (second compound 10 µM): < 9.49 nM
- viability, T/C (second compound 0.0316 µM, first compound 0.00949 µM): 50.8%
- viability, T/C (second compound 0.0316 µM, first compound 0.03 µM): 45.5%
- viability, T/C (second compound 0.0316 µM, first compound 0.0949 µM): 57.5%
- viability, T/C (second compound 0.0316 µM, first compound 0.3 µM): 47.5%
- viability, T/C (second compound 0.0316 µM, first compound 0.949 µM): 53.1%
- viability, T/C (second compound 0.0316 µM, first compound 3 µM): 57.5%
- viability, T/C (second compound 0.1 µM, first compound 0.00949 µM): 51.4%
- viability, T/C (second compound 0.1 µM, first compound 0.03 µM): 56.5%
- viability, T/C (second compound 0.1 µM, first compound 0.0949 µM): 42.7%
- viability, T/C (second compound 0.1 µM, first compound 0.3 µM): 44.4%
- viability, T/C (second compound 0.1 µM, first compound 0.949 µM): 59%
- viability, T/C (second compound 0.1 µM, first compound 3 µM): 47.3%
- viability, T/C (second compound 0.316 µM, first compound 0.00949 µM): 56.7%
- viability, T/C (second compound 0.316 µM, first compound 0.03 µM): 50.6%
- viability, T/C (second compound 0.316 µM, first compound 0.0949 µM): 46.8%
- viability, T/C (second compound 0.316 µM, first compound 0.3 µM): 49.1%
- viability, T/C (second compound 0.316 µM, first compound 0.949 µM): 59.4%
- viability, T/C (second compound 0.316 µM, first compound 3 µM): 50.3%
- viability, T/C (second compound 1 µM, first compound 0.00949 µM): 52%
- viability, T/C (second compound 1 µM, first compound 0.03 µM): 54%
- viability, T/C (second compound 1 µM, first compound 0.0949 µM): 48.8%
- viability, T/C (second compound 1 µM, first compound 0.3 µM): 49.5%
- viability, T/C (second compound 1 µM, first compound 0.949 µM): 52.2%
- viability, T/C (second compound 1 µM, first compound 3 µM): 53.4%
- viability, T/C (second compound 3.16 µM, first compound 0.00949 µM): 49.8%
- viability, T/C (second compound 3.16 µM, first compound 0.03 µM): 48.4%
- viability, T/C (second compound 3.16 µM, first compound 0.0949 µM): 46.7%
- viability, T/C (second compound 3.16 µM, first compound 0.3 µM): 56.9%
- viability, T/C (second compound 3.16 µM, first compound 0.949 µM): 48.3%
- viability, T/C (second compound 3.16 µM, first compound 3 µM): 46%
- viability, T/C (second compound 10 µM, first compound 0.00949 µM): 50.5%
- viability, T/C (second compound 10 µM, first compound 0.03 µM): 45.4%
- viability, T/C (second compound 10 µM, first compound 0.0949 µM): 46.9%
- viability, T/C (second compound 10 µM, first compound 0.3 µM): 48.2%
- viability, T/C (second compound 10 µM, first compound 0.949 µM): 44%
- viability, T/C (second compound 10 µM, first compound 3 µM): 52.7%

SMILES: CC1COCCN1c1cc(C2(O)CC3CCC(C2)O3)c2cnn(-c3ccn[nH]3)c2n1 (stereo not drawn) + Cc1cccc(N(C)C(=O)C2C(O)CCN2c2nc(C)cc(C(F)(F)F)c2C#N)c1
- IC50 (second compound 0.0316 µM): 133 nM
- IC50 (second compound 0.1 µM): 71 nM
- IC50 (second compound 0.316 µM): 133 nM
- IC50 (second compound 1 µM): 102 nM
- IC50 (second compound 3.16 µM): 98.8 nM
- IC50 (second compound 10 µM): 56.5 nM
- viability, T/C [1]: 66.5%
- viability, T/C [2]: 48.2%
- viability, T/C [3]: 42.3%
- viability, T/C [4]: 34.2%
- viability, T/C [5]: 26.1%
- viability, T/C [6]: 14.6%
- viability, T/C [7]: 56.7%
- viability, T/C [8]: 48.1%
- viability, T/C [9]: 36.1%
- viability, T/C [10]: 29%
- viability, T/C [11]: 23.8%
- viability, T/C [12]: 15.2%
- viability, T/C [13]: 66.8%
- viability, T/C [14]: 49.5%
- viability, T/C [15]: 39.8%
- viability, T/C [16]: 34.5%
- viability, T/C [17]: 25.9%
- viability, T/C [18]: 12.4%
- viability, T/C [19]: 62.7%
- viability, T/C [20]: 48.4%
- viability, T/C [21]: 38.9%
- viability, T/C [22]: 31.2%
- viability, T/C [23]: 22.6%
- viability, T/C [24]: 12.4%
- viability, T/C [25]: 61.5%
- viability, T/C [26]: 47.9%
- viability, T/C [27]: 40%
- viability, T/C [28]: 30.6%
- viability, T/C [29]: 26.4%
- viability, T/C [30]: 13.7%
- viability, T/C [31]: 55.9%
- viability, T/C [32]: 43.6%
- viability, T/C [33]: 37.6%
- viability, T/C [34]: 29.5%
- viability, T/C [35]: 29.9%
- viability, T/C [36]: 13.3%

SMILES: CCc1cc2c(N3CCc4c(cc(Cn5ccnc5)cc4-c4cn(C)nc4C(F)(F)F)C3=O)ccnc2c(OC)n1 + Cc1cccc(N(C)C(=O)C2C(O)CCN2c2nc(C)cc(C(F)(F)F)c2C#N)c1
- IC50 (second compound 0.0316 µM): > 10000 nM
- IC50 (second compound 0.1 µM): > 10000 nM
- IC50 (second compound 0.316 µM): > 10000 nM
- IC50 (second compound 1 µM): > 10000 nM
- IC50 (second compound 3.16 µM): > 10000 nM
- IC50 (second compound 10 µM): > 10000 nM
- viability, T/C [1]: 110%
- viability, T/C [2]: 98.7%
- viability, T/C [3]: 121%
- viability, T/C [4]: 125%
- viability, T/C [5]: 127%
- viability, T/C [6]: 103%
- viability, T/C [7]: 95.2%
- viability, T/C [8]: 116%
- viability, T/C [9]: 120%
- viability, T/C [10]: 123%
- viability, T/C [11]: 102%
- viability, T/C [12]: 87.3%
- viability, T/C [13]: 116%
- viability, T/C [14]: 115%
- viability, T/C [15]: 130%
- viability, T/C [16]: 140%
- viability, T/C [17]: 132%
- viability, T/C [18]: 76.8%
- viability, T/C [19]: 93%
- viability, T/C [20]: 85.7%
- viability, T/C [21]: 148%
- viability, T/C [22]: 122%
- viability, T/C [23]: 127%
- viability, T/C [24]: 74.5%
- viability, T/C [25]: 85.3%
- viability, T/C [26]: 107%
- viability, T/C [27]: 128%
- viability, T/C [28]: 115%
- viability, T/C [29]: 109%
- viability, T/C [30]: 75.8%
- viability, T/C [31]: 86.5%
- viability, T/C [32]: 88%
- viability, T/C [33]: 102%
- viability, T/C [34]: 87.6%
- viability, T/C [35]: 92.9%
- viability, T/C [36]: 74.3%

SMILES: O=C(c1cc(Cc2n[nH]c(=O)c3ccccc23)ccc1F)N1CCN(C(=O)C2CC2)CC1 + Nc1ccc(C#CCN(C(=O)Cc2ncc(C(F)(F)F)cc2C(F)(F)F)c2ccc(F)cc2)nn1
- IC50 (second compound 0.0316 µM): > 10000 nM
- IC50 (second compound 0.1 µM): > 10000 nM
- IC50 (second compound 0.316 µM): > 10000 nM
- IC50 (second compound 1 µM): > 10000 nM
- IC50 (second compound 3.16 µM): > 10000 nM
- IC50 (second compound 10 µM): > 10000 nM
- viability, T/C [1]: 94%
- viability, T/C [2]: 93%
- viability, T/C [3]: 66.3%
- viability, T/C [4]: 118%
- viability, T/C [5]: 80.1%
- viability, T/C [6]: 73.5%
- viability, T/C [7]: 95.3%
- viability, T/C [8]: 112%
- viability, T/C [9]: 83.7%
- viability, T/C [10]: 97.5%
- viability, T/C [11]: 79.5%
- viability, T/C [12]: 66.6%
- viability, T/C [13]: 110%
- viability, T/C [14]: 115%
- viability, T/C [15]: 85.2%
- viability, T/C [16]: 104%
- viability, T/C [17]: 97.5%
- viability, T/C [18]: 59.7%
- viability, T/C [19]: 152%
- viability, T/C [20]: 113%
- viability, T/C [21]: 94.8%
- viability, T/C [22]: 102%
- viability, T/C [23]: 85.2%
- viability, T/C [24]: 67.6%
- viability, T/C [25]: 104%
- viability, T/C [26]: 92.4%
- viability, T/C [27]: 90.1%
- viability, T/C [28]: 98.2%
- viability, T/C [29]: 95.1%
- viability, T/C [30]: 62.8%
- viability, T/C [31]: 111%
- viability, T/C [32]: 110%
- viability, T/C [33]: 97.5%
- viability, T/C [34]: 90.9%
- viability, T/C [35]: 76.3%
- viability, T/C [36]: 86.2%
